In ChEMBL document CHEMBL4385643, “Design of a brain-penetrant CDK4/6 inhibitor for glioblastoma” (Bioorg Med Chem Lett, 2019):

Tests used:
CDK6/cyclin D3 = CDK6/cyclin D3 (Homo sapiens, UniProt Q00534)
Description: Inhibition of human full length GST-tagged CDK6 (1 to 326(end) amino acids)/Cyclin D3 (1 to 292(end) amino acids) expressed in baculovirus expression system assessed as inhibition constant using Ulight-4E-BP1 as substrate preincubated for 30 mins followed by substrate addition and incubated for 90 mins by TR-FRET assay

CDK1/Cyclin A = CDK1/Cyclin A (Homo sapiens, UniProt P06493)
Description: Inhibition of human recombinant full length GST-tagged CDK1/Cyclin A2 expressed in sf9 insect cells assessed as inhibition constant using Ulight-4E-BP1 as substrate preincubated for 30 mins followed by substrate addition and incubated for 90 mins by TR-FRET assay

CDK4/Cyclin D3 = CDK4/Cyclin D3 (Homo sapiens, UniProt P11802)
Description: Inhibition of human full length GST-tagged CDK4 (1 to 303(end) amino acids)/Cyclin D3 (1 to 292(end) amino acids) expressed in baculovirus expression system assessed as inhibition constant using Ulight-4E-BP1 as substrate preincubated for 30 mins followed by substrate addition and incubated for 90 mins by TR-FRET assay

[1] = target: Cyclin-dependent kinase 2/cyclin E1 (Homo sapiens, UniProt P24941); test: Inhibition of human full length GST-tagged CDK2 (1 to 298(end) amino acids)/Cyclin E1 (1 to 410(end) amino acids) expressed in baculovirus expression system assessed as inhibition constant using Ulight-4E-BP1 as substrate preincubated for 30 mins followed by substrate addition and incubated for 90 mins by TR-FRET assay
human MDR1 = test: in vitro; conditions: dog, MDCK-MDR1
Description: Efflux ratio in gMDCKI cells expressing human MDR1

[2] = Lipophilicity, log D of the compound by microscale shake flask method; format: physicochemical; conditions: octanol/water
mouse Bcrp1 = test: in vitro; conditions: dog
Description: Efflux ratio in MDCK2 expressing mouse bcrp1

Sequence of CDK6/cyclin D3 (P30281 whole entry): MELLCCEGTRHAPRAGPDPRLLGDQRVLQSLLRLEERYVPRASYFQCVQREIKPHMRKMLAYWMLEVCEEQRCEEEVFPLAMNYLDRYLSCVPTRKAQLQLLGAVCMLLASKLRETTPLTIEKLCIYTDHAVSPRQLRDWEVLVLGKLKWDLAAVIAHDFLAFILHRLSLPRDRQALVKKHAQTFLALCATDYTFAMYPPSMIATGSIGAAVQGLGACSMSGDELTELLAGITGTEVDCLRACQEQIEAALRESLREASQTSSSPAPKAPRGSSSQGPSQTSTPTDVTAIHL
Sequence of CDK6/cyclin D3 (Q00534 whole entry): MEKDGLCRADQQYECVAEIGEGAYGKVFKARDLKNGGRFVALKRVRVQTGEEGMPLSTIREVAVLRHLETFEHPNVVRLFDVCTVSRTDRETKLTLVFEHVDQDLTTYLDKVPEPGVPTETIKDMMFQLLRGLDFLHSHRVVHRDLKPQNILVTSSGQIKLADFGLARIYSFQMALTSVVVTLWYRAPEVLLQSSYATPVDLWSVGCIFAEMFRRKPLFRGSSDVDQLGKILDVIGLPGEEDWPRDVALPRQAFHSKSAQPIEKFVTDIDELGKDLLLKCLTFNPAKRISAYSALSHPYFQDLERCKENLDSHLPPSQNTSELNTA
Sequence of CDK1/Cyclin A (P06493 whole entry): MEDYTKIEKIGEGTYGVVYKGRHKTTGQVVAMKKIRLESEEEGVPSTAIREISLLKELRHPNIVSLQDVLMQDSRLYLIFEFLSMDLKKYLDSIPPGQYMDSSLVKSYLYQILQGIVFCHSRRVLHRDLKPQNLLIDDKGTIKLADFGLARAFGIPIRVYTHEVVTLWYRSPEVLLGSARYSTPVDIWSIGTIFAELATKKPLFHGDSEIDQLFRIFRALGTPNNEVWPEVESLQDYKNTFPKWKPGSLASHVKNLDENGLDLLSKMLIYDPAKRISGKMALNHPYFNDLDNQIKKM
Sequence of CDK1/Cyclin A (P20248 whole entry, further chain): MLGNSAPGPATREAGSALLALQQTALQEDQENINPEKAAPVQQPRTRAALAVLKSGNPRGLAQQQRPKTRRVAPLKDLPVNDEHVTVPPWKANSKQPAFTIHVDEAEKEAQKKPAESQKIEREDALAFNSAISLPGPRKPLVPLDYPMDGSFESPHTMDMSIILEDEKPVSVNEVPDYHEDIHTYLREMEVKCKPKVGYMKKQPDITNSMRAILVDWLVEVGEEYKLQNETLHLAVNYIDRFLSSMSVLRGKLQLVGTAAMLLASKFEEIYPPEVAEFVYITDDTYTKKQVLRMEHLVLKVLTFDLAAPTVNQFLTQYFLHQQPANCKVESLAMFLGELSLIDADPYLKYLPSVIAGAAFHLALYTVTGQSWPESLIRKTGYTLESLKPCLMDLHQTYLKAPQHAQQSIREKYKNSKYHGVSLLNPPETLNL
Sequence of CDK4/Cyclin D3 (P11802 whole entry): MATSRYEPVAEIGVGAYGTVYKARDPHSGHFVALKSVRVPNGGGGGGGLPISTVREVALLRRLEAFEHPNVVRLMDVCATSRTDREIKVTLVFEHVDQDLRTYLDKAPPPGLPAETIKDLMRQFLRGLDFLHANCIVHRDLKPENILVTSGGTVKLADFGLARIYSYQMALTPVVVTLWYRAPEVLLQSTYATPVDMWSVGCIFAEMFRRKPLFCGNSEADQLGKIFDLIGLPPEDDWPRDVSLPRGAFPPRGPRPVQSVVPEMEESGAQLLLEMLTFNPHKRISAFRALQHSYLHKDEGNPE
Sequence of CDK4/Cyclin D3 (P30281 whole entry, further chain): as the sequence (P30281 whole entry) above

SMILES	Ki (CDK6/cyclin D3) [nM]	Ki (CDK1/Cyclin A) [nM]	Ki (CDK4/Cyclin D3) [nM]	Ki [1] [nM]	efflux ratio (human MDR1)	logD [2]	efflux ratio (mouse Bcrp1)
COCCN1CCC(Nc2nccc(-c3cnn4c3CCCC4)n2)CC1	7400	5200	210	7500			
CC(C)c1c(-c2nc(Nc3ccc(N4CCN(C)CC4)cn3)ncc2F)cnn1C	32	530	2.7				
CCN1CCN(Cc2ccc(Nc3ncc(F)c(-c4cnn5c4[C@H](C)CCCC5)n3)nc2)CC1	37	630	1.3				
CC(C)c1n[nH]cc1-c1ccnc(NC2CCCCC2)n1	450	24	18	22			
CN1CCN(c2ccc(Nc3ncc(F)c(-c4cnn5c4CCCC5)n3)nc2)CC1	40	2000	3.6				
CN1CCN(c2ccc(Nc3nccc(-c4cnn5c4CCCC5)n3)nc2)CC1	1900	29000	61	15000			
C[C@H]1CCCn2ncc(-c3nc(Nc4ccc(N5CCN(C)CC5)cn4)ncc3F)c21	38	980	3.8				
COCCN1CCC(Nc2nccc(-c3cn[nH]c3C(C)C)n2)CC1	720	270	20	320			

Now those with a lower Ki (CDK6/cyclin D3), led by results:

Ki (CDK6/cyclin D3) [nM]	Ki (CDK1/Cyclin A) [nM]	Ki (CDK4/Cyclin D3) [nM]	Ki [1] [nM]	efflux ratio (human MDR1)	logD [2]	efflux ratio (mouse Bcrp1)	SMILES
1.7	63	< 0.3					C[C@@H]1CCCCn2ncc(-c3nc(Nc4ccc(N5CC6(CN(C)C6)C5)cn4)ncc3F)c21
7.9	70	0.4					C[C@@H]1CCCCn2ncc(-c3nc(Nc4ccc(N5CCOCC5)cn4)ncc3F)c21
19	770	1.4					C[C@@H]1CCCn2ncc(-c3nc(Nc4ccc(N5CCN(C)CC5)cn4)ncc3F)c21
10	210	1					C[C@@H]1CCCCn2ncc(-c3nc(Nc4ccc(N5CCC(N(C)C)CC5)cn4)ncc3F)c21
24	1300	1.8					CN1CCN(c2ccc(Nc3ncc(F)c(-c4cnn5c4CCCCC5)n3)nc2)CC1
18	280	0.8					C[C@@H]1CCCCn2ncc(-c3nc(Nc4ccc(C5CCN(C)CC5)cn4)ncc3F)c21
1.6	52	< 0.3		2	2.8	0.9	C[C@@H]1CCCCn2ncc(-c3nc(Nc4ccc(N5CC6(CN(CCF)C6)C5)cn4)ncc3F)c21
3.3	110	< 0.3					C[C@@H]1CCCCn2ncc(-c3nc(Nc4ccc(N5CC6(CN(CCCF)C6)C5)cn4)ncc3F)c21
4.3	77	0.4					C[C@@H]1CCCCn2ncc(-c3nc(Nc4ccc(N5CC6(C5)CN(C5COC5)C6)cn4)ncc3F)c21
